From patent US6630124B1, “Combination therapy with VIP antagonist” (Ramot-University Authority for Applied Research and …, priority 1998, dated 2003)
Where a SMILES comes first, the peptide text is derived from it. [ ]: non-standard residue; d: D form. The star is where a group is joined. Stearoyl = CCCCCCCCCCCCCCCCCC(=O)*; Nle = CCCC[C@H](N)C(=O)O

How the values were obtained:
[1] = test system: nonsmall cell lung cancer line; conditions: 2 mM of the antagonist
Method: Assays were performed with cell lines derived from colon cancer and prostate cancer. Proliferation was assessed using the MTS colorimetric assay of mitochondrial function for living cells. The VIP antagonist (stearyl-Nle17-neurotensis 6-11 VIP 7-28) was used.

[2] = test system: panel of 56 cancer cell lines; experiment: NCI "compare analysis", panel of 56 cancer cell lines; assay type: cell-based
Excerpt: The mean value±S. D. of 8 determinations is indicated; *, p<0.05 using student's t-test. (SN)VIPhyb inhibited the growth of leukemia (CCRF-CEM), HL-60(TB), K-562, MOLT-4, RPMI-8226, SR), non-small cell lung cancer (A549, EKVX, HOP-62, HOP-92, H23, H322M, H460 and H522), colon cancer (COLO205, HCC-2998, HCT-116, HT29, KM12, SW-620), CNS cancer (SF-268, SF-295, SF-539, SNB-19, U251), melanoma (LOX IMVI, MALME-3M, M14, SK-MEL-2, SK-MEL-28, SK-MEL-5, UACC-257, UACC-62), ovarian cancer (IGROV1, OVCAR-3, OVCAR-5, OVCAR-8, SK-OV-3), renal cancer (786-0, A498, CAKI-1, RXF 393, SM12C, TK-l0), prostate cancer (PC-3, DU-145) and breast cancer (MCF-7, MDA-MB-231, HS 578T, MDA-MB-435, MDA-N and T-47D).

[3] = test system: MCF-7 breast cancer cells; experiment: MTT assay, Taxol with or without SNVIPhyb; assay type: cell-based; conditions: 10 μM SNVIPhyb, MTT assay
Excerpt: The ability of SNVIPhyb to inhibit cancer growth was investigated.

U-87 cells = experiment: U-87 colony formation in soft agar; assay type: cell-based; conditions: in vitro
Excerpt: (§1) The effects of VIP receptor antagonists on glioblastoma cell lines were investigated.

glioblastoma cell lines = experiment: MTT assay, glioblastoma proliferation; assay type: cell-based
Excerpt: as §1

cancer cells = experiment: MTS cell proliferation assay, inhibition of cell growth by SNH; assay type: cell-based
Excerpt: For growth inhibition experiments, subconfluent adherent cells were washed with PBS and treated with trypsin/versene. The cells were pelleted and resuspended in medium to a final concentration of 75,000 cells/mL for NCI-H727. 50,000 cells/mL for LNCaP and HT-29 and 25000 cells/mL for CT-26. These different concentrations were used in order to avoid confluence in the wells at the end of the experiment and correspond to the different doubling times of the cell lines.
On day 0, cells suspensions […] were dispensed using a multi-channel pipet into the individual wells of a 96-well tissue culture plate (Nuncion, Nunc Brand Products). […] Cells were incubated for 24 hours in a humidified atmosphere of 95% air/5% CO2 at 37° C. before treatment. […]
On day 4, viable cell number was determined by a modified MTT assay i.e., MTS non-radioactive cell proliferation assay (Promega). Briefly, […] of freshly prepared MTS/PMS solution was added to each individual well and after 1-3 hours of incubation (the optimal time was determined for each cell line) absorbance at 490 nm was measured using a multiscan plate reader. Results were finally expressed as percentage of the control, which was obtained from the samples with no drug treatment. Dose-response curves were plotted using a Sigma-Plot software and statistically analyzed using Student test. […]

HT-29 human colon cancer = experiment: MTS cell proliferation assay, SNH and chemotherapy; assay type: cell-based; conditions: HT-29, 4 hour treatment with SNH followed by a 24 hour treatment (FIG. 11)
Method: NCI-H727 and LNCaP were grown in RPMI 1640 medium supplemented with 10% heat inactivated FCS, L-glutamine and antibiotics. HT-29 and CT-26 were grown in DMEM medium supplemented with 10% heat-inactivated FCS (fetal calf serum), L-glutamine and antibiotics. The cells were cultured in 5% CO2/95% air at […] and used during their exponential growth phase. Routinely, the cells which are adherent, were split when a subconfluent monolayer was formed. In different experiments, various concentration of FCS were used. For growth inhibition experiments, subconfluent adherent cells were washed with PBS and treated with trypsin/versene. The cells were pelleted and resuspended in medium to a final concentration of 75,000 cells/mL for NCI-H727. 50,000 cells/mL for LNCaP and HT-29 and 25000 cells/mL for CT-26. These different concentrations were used in order to avoid confluence in the wells at the end of the experiment and correspond to the different doubling times of the cell lines. […] On day 4, viable cell number was determined by a modified MTT assay i.e., MTS non-radioactive cell proliferation assay (Promega). […] Results were finally expressed as percentage of the control, which was obtained from the samples with no drug treatment. Dose-response curves were plotted using a Sigma-Plot software and statistically analyzed using Student test. […] On day 4 the number of viable cells was determined by MTS assay.

CCCCCCCCCCCCCCCCCC(=O)N[C@@H](CCCCN)C(=O)N1CCC[C@H]1C(=O)N[C@@H](CCCNC(=N)N)C(=O)N[C@@H](CCCNC(=N)N)C(=O)N1CCC[C@H]1C(=O)N[C@@H](Cc1ccc(O)cc1)C(=O)N[C@H](C(=O)N[C@@H](CC(=O)O)C(=O)N[C@@H](CC(N)=O)C(=O)N[C@@H](Cc1ccc(O)cc1)C(=O)N[C@H](C(=O)N[C@@H](CCCNC(=N)N)C(=O)N[C@@H](CC(C)C)C(=O)N[C@@H](CCCNC(=N)N)C(=O)N[C@@H](CCCCN)C(=O)N[C@@H](CCC(N)=O)C(=O)N[C@@H](CCCC)C(=O)N[C@@H](C)C(=O)N[C@H](C(=O)N[C@@H](CCCCN)C(=O)N[C@@H](CCCCN)C(=O)N[C@@H](Cc1ccc(O)cc1)C(=O)N[C@@H](CC(C)C)C(=O)N[C@@H](CC(N)=O)C(=O)N[C@@H](CO)C(=O)N[C@H](C(=O)N[C@@H](CC(C)C)C(=O)N[C@@H](CC(N)=O)C(N)=O)[C@@H](C)CC)C(C)C)[C@@H](C)O)[C@@H](C)O [SNH] (Stearoyl-KPRRPYTDNYTRLRKQ[Nle]AVKKYLNSILN-NH2)
growth inhibition [1]: 15-20% | cell lines significantly inhibited ([2]; CNS cancer): 5/5 | cell lines whose proliferation was significantly inhibited ([2]; all cell lines tested): 51 of 56 | cell lines significantly inhibited ([2]; breast cancer): 6/8 | cell lines significantly inhibited ([2]; colon cancer): 6/7 | cell lines significantly inhibited ([2]; leukemia): 6/6 | cell lines significantly inhibited ([2]; melanoma): 8/8 | cell lines significantly inhibited ([2]; non-small cell lung cancer): 7/7 | cell lines significantly inhibited ([2]; ovarian cancer): 5/6 | cell lines significantly inhibited ([2]; prostate cancer): 2/2 | cell lines significantly inhibited ([2]; renal cancer): 6/7 | effect on MCF-7 breast cancer proliferation [3]: little effect | relative potency at inhibiting U-87 colony formation (U-87 cells): more potent than VIP hybrid | effect on basal proliferation (glioblastoma cell lines; 1 μM): little effect | interaction with Taxol to inhibit growth (glioblastoma cell lines; 1 μM (SN)VIPhybrid with Taxol): synergistically interacted | inhibition of the growth of cancer cells (cancer cells; 10 mM of SNH): significantly inhibits | death of the cancer cells (cancer cells; 8-10 mM SNH, FCS lower than 2%): complete or almost complete death | effect of the combination with a different schedule (HT-29 human colon cancer): also effective
